The text below walks through data of patent US10624913B2, “Diagnostics and methods for treatment of non-alcoholic hepatic steatosis and hepatic steatohepatitis, and prevention of complications thereof” (VOLANT HOLDINGS GMBH, priority 2011, dated 2020).

Where a name gives a salt, the structure may show the parent alone.

The subject of one data set is Hepatitis C virus. Description: Hepatitis C patient cases: viral load. Type of data set: in vivo, human. As to conditions: Patient E1 on combination; words. The method, then: Case 1: A Hepatitis C Patient with Moderate Viral Load Treated with Brake™ Alone, with the Goal to Evaluate the Secondary Antiviral Impact of Improving the Hepatic Steatosis
Patient M1 was a person with a normal BMI.
They were not on Hepatitis C treatment since 2007; no antiviral drugs in the 3 years prior to Brake™ therapy. Treatment Course: Aphoeline Brake™ (formulation II) was added to their treatment at their second visit.
A Hepatitis C Patient with Combination Treatment of Brake™ and pegIFN/Riba, a Test of the Ability of Combinations to Reduce Viral Load Over that of pegIFN/Riba Alone
After two months with only moderate viral load response to this increased dosage, the patient had the addition of 10 gm per day of Aphoeline Brake™ added to their maximal dose pegIFN/Riba regimen.
Case 3: A Hepatitis C Patient with Advanced Cirrhosis, Treated with Brake™ Alone, a Test of the Ability to Control Hepatic Steatosis in the Face of Minimal Action on the Viral Load
Patient L1 is a Overweight (5′3″ 202 lb) but not overtly T2D […] with Hepatitis C genotype 1a since ˜2002. They had previously been treated with pegIFN/Riba but had been considered a failure in 2005. They have been untreated for Hepatitis C since that time. […] Their bilirubin was 1.5 when seen and they were on the liver transplant list. Their chronic medications included spironolactone, rifaximin, and nexium. […]

For data set [1], the system named is patients with incident AF. Kind of data set: Longitudinal cohort study of atrial fibrillation patients with or without warfarin. Type of data set: in vivo, human. The following applies: adjusted for age and CHADS2; 95% CI 0.85, 2.13; not statistically significant. As to the method: We performed a longitudinal, cohort study with pharmacy and medical claims from 1997 to 2008 from a local health maintenance organization. Participants were identified with incident AF irrespective of warfarin status and followed through their duration within the database. Three clinical outcome measures were assessed including stroke, myocardial infarction, and bleeding. A neural net model was developed to identify patients at high risk of clinical event and defined to be an ‘enriched’ patient. The model defines the enrichment based on the top 10 minimum mean square error (MMSE) output parameters that describe the three clinical outcomes. The MMSE ranks the parameters in order from best to worst predictability when modeling the outputs. Predictors and outcome measures were ascertained with cox proportional hazards models.

Data set [2] has as its system patients with multiple manifestations of MetS. Kind of data set: Treatment comparison of RYGB, Brake or atorvastatin (Lipitor), each added to standard of care (Example 3). The class given is in vivo, human. The following applies: for LDL percent change: from baseline. An excerpt: FIG. 20. […] All patients were given 10 gm Brake™ once Daily, orally, 4 hrs prior to their main meal Pertinent demographic and clinical data were retrieved from medical records for all patients, and shown in FIG. 21. Variables included age, gender, body weight, lipid panel (low-density lipoprotein [LDL], high-density lipoprotein [HDL], triglycerides [TG], and total cholesterol [TC]), HbA1c, and liver function tests (aspartate aminotransferase [AST] and alanine aminotransferase [ALT]). Patients were followed monthly for up to one year to assess changes in the above stated variables. […] From the beginning, the patients who began the study with abnormal findings were separated from the patients with initially normal values and those with abnormal findings were further analyzed to define the magnitude of change as well as the percent change from baseline pre-therapy. Descriptive statistics were used in analyzing the baseline characteristics of each cohort. In addition to counts of how many patients had values above threshold, all descriptive characteristics are reported for each group as percentages and mean values, or where appropriate, the binary distribution percentages. […] This testing was applied to case and control cohorts: (a) using data for all treated patients, (b) using data for only those with abnormal range baselines (c) using cases where the initial value was within the normal range for the laboratory. Data were subsequently analyzed for percent change by biomarker from both of these two perspectives. Comparisons between groups were performed by mixed analysis of variances with a post hoc correction for multiple comparisons to analyze differences between treatments. Data are presented as mean±standard deviation (unless otherwise specified). A p<0.05 was considered evidence of significant change. All statistical analyses were conducted using SAS version 9.4 (SAS institute, Cary, N.C.).

The subject of data set [3] is metabolic syndrome / cardiovascular risk (FS index, CV index). Description: Cross comparison of FS index and CV index in treated patients (Example 2). The following applies: before, at 6 and 12 months, added to SoC; words. Type of data set: in vivo, human.
Protocol: Here we compare the same patients using FS index and CV index, in order to establish concordance in the risk scoring. We also include patients with MIs as examples of patients with CV events. For each of these patients, the FS index was calculated and the CV index was calculated, using an electronic spreadsheet designed for this purpose, and with the goal to evaluate concordance in the risk scoring. We also include patients with MIs as examples of patients with CV events.
To assess changes in metabolic syndrome, patient characteristics were analyzed using the FS Index.(44) Briefly, the FS index is a method for assessing cardiovascular risk associated with the glucose supply side in metabolic syndrome and T2D patients. The FS index is obtained from the individual patient's biological parameters, wherein a FS index value of greater than 60 is indicative that the individual is in need of therapy for metabolic syndrome or at risk for at least one cardiovascular complication associated with metabolic syndrome.
Data set [4] has as its system ileal brake (PYY, motilin). As to conditions: ileal infusions in different amounts; words; cited from earlier work.
The mark [5] stands for this setting: decline from pre-treatment baseline, added to SoC, FIG. 21.

With `COc1cc(/C=C/C(=O)CC(=O)/C=C/c2ccc(O)c(OC)c2)ccc1O` [curcumin], the “Hepatitis C virus status / control of viral load” value in the data set on Hepatitis C virus is reported as “loss of control for viral load”.

Turning to `CC(=O)CC(c1ccccc1)c1c(O)c2ccccc2oc1=O` (stereo not shown) [warfarin], the “risk of negative clinical outcomes (aHR)” value in data set [1] worked out at 1.35.

For `CC(C)c1c(C(=O)Nc2ccccc2)c(-c2ccccc2)c(-c2ccc(F)cc2)n1CC[C@@H](O)C[C@@H](O)CC(=O)O` (relative stereo) [atorvastatin, [R—(R*,R*)]-2-(4-fluorophenyl)-β,δ-dihydroxy-5-(l-methylethyl)-3-phenyl-4-[(phenylamino)-carbonyl]-1H-pyrrole-1-heptanoic acid; calcium salt (2:1) trihydrate], the Total cholesterol decline in data set [2] (abnormal baseline cases, 6 and 12 months of treatment) is 3.2%. Moreover, in data set [2] (at 12 months), the Body weight decline turned out to be 2.6%. The ALT decline result in data set [2] (setting [5]) is listed as “essentially no decline”. Further, the AST decline in data set [2] (setting [5]) is listed as 3.5%. In data set [2] (setting [5]), the Triglyceride concentration decline was found to be 18%. Further, the HDL values entry was “decreased” in data set [2] (high dose (40 mg) atorvastatin alone, words) and “increased” in data set [2] (low dose atorvastatin, words). Further, the LDL percent change is given as −22.7% in data set [2] (high dose (40 mg) atorvastatin, FIG. 21) and −10.1% in data set [2] (low dose atorvastatin, FIG. 21). Besides, the “Changes baseline to post treatment in triglycerides” value in data set [2] (words) was “negligible”. Besides, in data set [2] (words, atorvastatin 10 mg or 40 mg), the “Changes in ALT and AST over pre treatment baseline” value is reported as “Only minor changes”.

With `CN(C)C(=N)N=C(N)N` [metformin], the “Changes in FS index over pre-treatment baseline” value in data set [3] is recorded as “did not change the FS index”.

As to `CCCCCCCC/C=C\CCCCCCCC(=O)O` [oleic acid], in data set [4], the PYY levels result is on record as “dose-dependent increase” and the motilin levels result is given as “borderline decrease”.
